Data as given in ChEMBL document CHEMBL1201862, “PubChem BioAssay data set” (2004).
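How tested: cells in 96-well plates exposed to compound for 48 hours at five concentrations. The concentration for 50% growth inhibition is given as GI50.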 The source made the active and inactive calls. Rule as the data show it: active = GI50 up to about 1.1 µM and inactive = higher.

Legend:
Assay in all cases: growth of human tumour cells (NCI), 48 h
786-0 = tested on: 786-0
A498 = tested on: A498
ACHN = tested on: ACHN
BT-549 = tested on: BT-549
CAKI-1 = tested on: CAKI-1
CCRF-CEM = tested on: CCRF-CEM
COLO 205 = tested on: COLO 205
DU-145 = tested on: DU-145
EKVX = tested on: EKVX
HCT-116 = tested on: HCT-116
HCT-15 = tested on: HCT-15
HL-60 = tested on: HL-60
HOP-62 = tested on: HOP-62
HT-29 = tested on: HT-29
Hs-578T = tested on: Hs-578T
IGROV-1 = tested on: IGROV-1
K562 = tested on: K562
KM12 = tested on: KM12
LOX IMVI = tested on: LOX IMVI
M14 = tested on: M14
MCF7 = tested on: MCF7
MDA-MB-231 = tested on: MDA-MB-231
MDA-MB-435 = tested on: MDA-MB-435
MDA-N = tested on: MDA-N
MOLT-4 = tested on: MOLT-4
Malme-3M = tested on: Malme-3M
NCI-H226 = tested on: NCI-H226
NCI-H23 = tested on: NCI-H23
NCI-H460 = tested on: NCI-H460
NCI/ADR-RES = tested on: NCI/ADR-RES
OVCAR-3 = tested on: OVCAR-3
OVCAR-5 = tested on: OVCAR-5
OVCAR-8 = tested on: OVCAR-8
PC-3 = tested on: PC-3
RPMI-8226 = tested on: RPMI-8226
RXF 393 = tested on: RXF 393
SF-268 = tested on: SF-268
SF-295 = tested on: SF-295
SF-539 = tested on: SF-539
SK-MEL-28 = tested on: SK-MEL-28
SK-MEL-2 = tested on: SK-MEL-2
SK-MEL-5 = tested on: SK-MEL-5
SK-OV-3 = tested on: SK-OV-3
SN12C = tested on: SN12C
SNB-19 = tested on: SNB-19
SNB-75 = tested on: SNB-75
SR = tested on: SR
SW-620 = tested on: SW-620
TK-10 = tested on: TK-10
U-251 = tested on: U-251
UACC-257 = tested on: UACC-257
UACC-62 = tested on: UACC-62
UO-31 = tested on: UO-31
A549 = tested on: A549
HOP-92 = tested on: HOP-92
NCI-H522 = tested on: NCI-H522
OVCAR-4 = tested on: OVCAR-4
T47D = tested on: T47D

`O=C(CN1CCOCC1)c1ccc2[nH]c(=O)oc2c1` was tested, and the GI50 (786-0) was > 100 µM (inactive), the GI50 (A498) was > 100 µM (inactive) and the GI50 (ACHN) was > 100 µM (inactive). For the same molecule, the GI50 (BT-549) was > 100 µM (inactive), the GI50 (CAKI-1) was > 100 µM (inactive) and the GI50 (CCRF-CEM) was > 100 µM (inactive). The GI50 (COLO 205) was > 100 µM (inactive), the GI50 (DU-145) was > 100 µM (inactive) and the GI50 (EKVX) was > 100 µM (inactive). The GI50 (HCT-116) was > 100 µM (inactive), the GI50 (HCT-15) was greater than 100 µM and the GI50 (HL-60) was > 100 µM (inactive). For the same molecule, the GI50 (HOP-62) was > 100 µM (inactive), the GI50 (HT-29) was > 100 µM (inactive) and the GI50 (Hs-578T) was > 100 µM (inactive). For the same molecule, the GI50 (IGROV-1) was > 100 µM (inactive), the GI50 (K562) was > 100 µM (inactive) and the GI50 (KM12) was > 100 µM (inactive). The GI50 (LOX IMVI) was > 100 µM (inactive), the GI50 (M14) was > 100 µM (inactive) and the GI50 (MCF7) was > 100 µM (inactive). The GI50 (MDA-MB-231) was > 100 µM (inactive), the GI50 (MDA-MB-435) was > 100 µM (inactive) and the GI50 (MDA-N) was > 100 µM (inactive). The GI50 (MOLT-4) was > 100 µM (inactive), the GI50 (Malme-3M) was > 100 µM (inactive) and the GI50 (NCI-H226) was > 100 µM (inactive). For the same molecule, the GI50 (NCI-H23) was > 100 µM (inactive), the GI50 (NCI-H460) was > 100 µM (inactive) and the GI50 (NCI/ADR-RES) was > 100 µM (inactive). For the same molecule, the GI50 (OVCAR-3) was > 100 µM (inactive), the GI50 (OVCAR-5) was > 100 µM (inactive) and the GI50 (OVCAR-8) was > 100 µM (inactive). The GI50 (PC-3) was > 100 µM (inactive), the GI50 (RPMI-8226) was > 100 µM (inactive) and the GI50 (RXF 393) was > 100 µM (inactive). The GI50 (SF-268) was > 100 µM (inactive), the GI50 (SF-295) was > 100 µM (inactive) and the GI50 (SF-539) was > 100 µM (inactive). For the same molecule, the GI50 (SK-MEL-28) was > 100 µM (inactive), the GI50 (SK-MEL-2) was > 100 µM (inactive) and the GI50 (SK-MEL-5) was > 100 µM (inactive). For the same molecule, the GI50 (SK-OV-3) was > 100 µM (inactive), the GI50 (SN12C) was > 100 µM (inactive) and the GI50 (SNB-19) was > 100 µM (inactive). The GI50 (SNB-75) was 77.4 µM (inactive), the GI50 (SR) was > 100 µM (inactive) and the GI50 (SW-620) was > 100 µM (inactive). For the same molecule, the GI50 (TK-10) was > 100 µM (inactive), the GI50 (U-251) was > 100 µM (inactive) and the GI50 (UACC-257) was > 100 µM (inactive). The GI50 (UACC-62) was > 100 µM (inactive) and the GI50 (UO-31) was 41.9 µM (inactive).

In the case of `O=C(NNC(=O)c1c(Cl)c(Cl)c(Cl)c(Cl)c1-c1nc2ccccc2[nH]1)c1ccc(Cl)cc1`, the GI50 (786-0) is reported as 51.8 µM (inactive), the GI50 (A498) is reported as 54.5 µM (inactive) and the GI50 (A549) is reported as 45 µM (inactive). For the same molecule, the GI50 (ACHN) was 46.9 µM (inactive), the GI50 (BT-549) was 46.1 µM (inactive) and the GI50 (CAKI-1) was 40.6 µM (inactive). For the same molecule, the GI50 (CCRF-CEM) was 22.4 µM (inactive), the GI50 (COLO 205) was 32.1 µM (inactive) and the GI50 (DU-145) was 42.5 µM (inactive). The GI50 (EKVX) was 44.2 µM (inactive), the GI50 (HCT-116) was 46.3 µM (inactive) and the GI50 (HCT-15) was 34.4 µM. The GI50 (HL-60) was 36.1 µM (inactive), the GI50 (HOP-62) was 61.9 µM (inactive) and the GI50 (HOP-92) was 24.6 µM (inactive). The GI50 (HT-29) was 58.6 µM (inactive), the GI50 (IGROV-1) was 17.5 µM (inactive) and the GI50 (K562) was 35.8 µM (inactive). For the same molecule, the GI50 (KM12) was 38.1 µM (inactive), the GI50 (LOX IMVI) was 65.9 µM (inactive) and the GI50 (M14) was 35.5 µM (inactive). For the same molecule, the GI50 (MCF7) was 34.9 µM (inactive), the GI50 (MDA-MB-435) was 24 µM (inactive) and the GI50 (MDA-N) was 21.3 µM (inactive). The GI50 (MOLT-4) was 38.9 µM (inactive), the GI50 (Malme-3M) was 89.3 µM (inactive) and the GI50 (NCI-H226) was 43.4 µM (inactive). The GI50 (NCI-H23) was 40.6 µM (inactive), the GI50 (NCI-H522) was 49.8 µM (inactive) and the GI50 (NCI/ADR-RES) was 32.9 µM (inactive). The GI50 (OVCAR-3) was 65.2 µM (inactive), the GI50 (OVCAR-4) was 50.2 µM (inactive) and the GI50 (OVCAR-5) was > 100 µM (inactive). The GI50 (OVCAR-8) was 66.1 µM (inactive), the GI50 (PC-3) was 55 µM (inactive) and the GI50 (RPMI-8226) was 33 µM (inactive). For the same molecule, the GI50 (RXF 393) was 43.4 µM (inactive), the GI50 (SF-268) was > 100 µM (inactive) and the GI50 (SF-295) was 44.5 µM (inactive). For the same molecule, the GI50 (SF-539) was 47.4 µM (inactive), the GI50 (SK-MEL-28) was 81.1 µM (inactive) and the GI50 (SK-MEL-2) was 37.9 µM (inactive). For the same molecule, the GI50 (SK-MEL-5) was 38.3 µM (inactive), the GI50 (SK-OV-3) was > 100 µM (inactive) and the GI50 (SN12C) was 37.7 µM (inactive). The GI50 (SNB-19) was 68.5 µM (inactive), the GI50 (SNB-75) was 38.5 µM (inactive) and the GI50 (SR) was 33.8 µM (inactive). For the same molecule, the GI50 (SW-620) was 50.7 µM (inactive), the GI50 (T47D) was 21.7 µM (inactive) and the GI50 (UACC-62) was 56.4 µM (inactive). The GI50 (UO-31) was 30.3 µM (inactive).
